Experimental data as given in US9341616B2, “Sweet taste receptor chimeric proteins and use thereof” (AJINOMOTO CO., INC., priority 2014, dated 2016).
Residues, ends and D or L forms follow the SMILES beside them.

Columns and labels:
[1] = target: hT1R2/T1R3mosaicC (UniProt Q8TE23+Q925D8, A558R/A588V/A645S/A698V/A702T/A793V/A807V/C582S/C678S/D172E/D176A/D217E/E221Q/E725V/F541I/F612A/F622V/F695L/H728R/I617V/I706V/I740A/I803L/K555R/K565R/K818R/K827G/L560F/L684P/L735F/L823M/L825Q/M644L/M744T/N203E/N231A/N547G/N675D/P545F/P561R/P564S/Q195T/Q550E/Q611L/Q757R/Q795R/Q831P/R173L/R632Q/S168G/S205G/S228A/S576L/S595F/S610P/S635P/S637R/S679G/S717H/T199E/T542A/T663I/T694M/T813A/V197A/V198A/V573A/V584A/V718M/V723A/V729T/V738A/V805L/V812A/V821L/W599R/W676R/W824R/Y680C/Y794L); details: Table 6; genes hT2/T1R3mC (hT1R2, T1R3mC); HEK293E cells
Experimental: (§1) The HEK293E cells maintained by using the DMEM/Ham's F-12 medium (Nakarai Tesque) containing 10% fetal bovine serum ([…]) and 1% Pen Strep (GIBCO) were washed with D-PBS(−) (Nakarai Tesque), and collected from the flask by using 0.25% Trypsin EDTA (GIBCO). The cells were centrifuged (1,200 rpm, 3 minutes), and after the supernatant was removed, suspended in 5% FBS DMEM/Ham's F-12 at a density of 0.75×10^7 cell/ml. This suspension (10 ml) was put into a […] (IWAKI), and culture was performed overnight (37° C., 5% CO2). On the next day, the medium was exchanged with Opti-MEM (30 ml, Invitrogen, Life Technologies), a sweet taste receptor gene mixture (Gα15-trans48LD gene, various kinds of T1R2 chimeric genes, and various kinds of T1R3 chimeric genes, 63.8 μg in total) prepared by using Opti-MEM and Lipofectamin 2000 (Invitrogen, Life Technologies) was slowly added to the cell suspension, and incubation was performed (37° C., 5% CO2) for 6 hours to attain gene transfer.
(§2) After the gene transfer, the cells were washed with D-PBS(−), then removed from the flask by using 0.25% Trypsin EDTA (GIBCO), and collected. After the cell number was counted, the cells were suspended in the 5% FBS DMEM medium (2.78 mM glucose, GIBCO) at a density of 0.5×10^6 cell/ml. This cell suspension was put into wells of D-Lysine coat 96-well plate (BD bioscience) in such a volume that the cell count is 7.0×10^4 cells/well, and the cells were cultured overnight.
(§3) After the culture, all the medium of the 96 wells were discarded. 200 μl of the staining solution for measurement of intracellular calcium ion′ Calcium Assay Kit Express (Molecular Device), diluted 80 times with an assay buffer (20 mM HEPES, 146 mM NaCl, 1 mM MgSO4, 1.39 mM glucose, 1 mM CaC12, 2.5 mM Probenecid, 0.05% bovine serum albumin) was added to each well, and the plate was left standing at 37° C. for 30 minutes and at room temperature for 45 minutes to perform staining. After the staining, 50 μl of a solution of stimulant (sweet taste substance) prepared with the assay buffer was added to each well, and the fluorescence value was measured for 120 seconds after the stimulation by using FDSSμEELL (Hamamatsu Photonics). By measuring the fluorescence value (Ex. 480 nm, Em. 540 nm) before and after the stimulation, the change of the intracellular free calcium ion concentration caused by addition of the stimulant via a sweet taste receptor was quantitatively investigated. The measurement and analysis of the fluorescence value was performed by using the software attached to FDSSμEELL (FDSS7000EX), and ΔF/F value was calculated in accordance with the following equation, and used for the evaluation. ΔF/F=(Maximum fluorescence value after stimulation−Minimum fluorescence value after stimulation)/(Fluorescence value before stimulation)
(§4) Furthermore, by using the ΔF/F values obtained when each sweet taste substance was added, the S/N ratio was calculated. Specifically, the S/N value was calculated by using the minimum value of ΔF/F obtained when each substance was added at various concentrations as noise (N) value, and the similarly obtained maximum value of ΔF/F as the signal (S) value, and used as an index for sensitivity of the measurement of the activity of each receptor. That is, a higher S/N value means a higher sensitivity for detection of an interaction of a sweet taste receptor and a test substance, which makes it easier to detect stimulation with a sweet taste substance or sweet taste-regulating substance of a lower concentration.
(§5) The sweet taste substances used as the stimulating substance are acesulfame potassium (Tokyo Kasei Kogyo), sodium saccharin (WAKO), sucralose (SIGMA), sucrose (WAKO), and neotame (SIGMA), as well as aspartame, advantame, and SC-45647 ([3-[(S)-1-phenylethyl]-2-(4-cyanophenyl)guanidino]acetic acid, which were all synthesized in-house.

[2] = target: hT1R2/T1R3mosaicB (UniProt Q8TE23+Q925D8, A558R/A588V/A645S/A698V/A702T/A793V/A807V/A88D/C582S/C678S/E725V/F541I/F612A/F622V/F695L/F71L/G86K/H728R/I152V/I617V/I706V/I740A/I803L/K555R/K565R/K818R/K827G/L151M/L560F/L684P/L68N/L72W/L735F/L823M/L825Q/M644L/M744T/M74L/N547G/N675D/P545F/P561R/P564S/P67S/Q123R/Q550E/Q611L/Q757R/Q795R/Q831P/R632Q/S112P/S124D/S576L/S595F/S610P/S635P/S637R/S679G/S717H/T109A/T542A/T663I/T694M/T813A/V120A/V573A/V584A/V718M/V723A/V729T/V738A/V805L/V812A/V821L/W599R/W676R/W824R/Y680C/Y794L); details: Table 6; genes hT2/T1R3mB (hT1R2, T1R3mB); HEK293E cells
Experimental: as §1, §2, §3, §4, §5

hT1R2/T1R3mosaicC, sequence (Q8TE23 20-839, stated change not applied): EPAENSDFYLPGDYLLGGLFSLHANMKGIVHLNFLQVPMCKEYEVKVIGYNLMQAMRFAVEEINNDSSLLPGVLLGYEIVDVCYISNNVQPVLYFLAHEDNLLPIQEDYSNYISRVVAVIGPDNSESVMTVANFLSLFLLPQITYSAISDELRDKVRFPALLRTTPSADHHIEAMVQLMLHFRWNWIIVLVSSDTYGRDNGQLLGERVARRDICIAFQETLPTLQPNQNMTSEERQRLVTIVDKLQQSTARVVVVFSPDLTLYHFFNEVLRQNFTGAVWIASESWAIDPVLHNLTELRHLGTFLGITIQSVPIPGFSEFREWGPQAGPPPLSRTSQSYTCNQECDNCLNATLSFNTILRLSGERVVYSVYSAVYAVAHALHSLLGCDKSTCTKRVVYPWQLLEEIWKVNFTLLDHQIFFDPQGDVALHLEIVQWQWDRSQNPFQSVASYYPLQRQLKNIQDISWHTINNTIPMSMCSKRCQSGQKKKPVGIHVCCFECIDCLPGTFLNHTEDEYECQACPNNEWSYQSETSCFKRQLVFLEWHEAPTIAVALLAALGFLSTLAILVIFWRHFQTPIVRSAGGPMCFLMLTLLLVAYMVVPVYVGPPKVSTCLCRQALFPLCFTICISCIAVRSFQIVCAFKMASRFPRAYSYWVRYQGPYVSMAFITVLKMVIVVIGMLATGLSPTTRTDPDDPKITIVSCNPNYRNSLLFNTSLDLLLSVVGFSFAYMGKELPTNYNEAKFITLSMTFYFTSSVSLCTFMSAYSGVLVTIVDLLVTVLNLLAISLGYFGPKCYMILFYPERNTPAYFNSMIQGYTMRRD
hT1R2/T1R3mosaicC, sequence (Q925D8 with tags, fused parts or gaps with the stated changes limits assumed): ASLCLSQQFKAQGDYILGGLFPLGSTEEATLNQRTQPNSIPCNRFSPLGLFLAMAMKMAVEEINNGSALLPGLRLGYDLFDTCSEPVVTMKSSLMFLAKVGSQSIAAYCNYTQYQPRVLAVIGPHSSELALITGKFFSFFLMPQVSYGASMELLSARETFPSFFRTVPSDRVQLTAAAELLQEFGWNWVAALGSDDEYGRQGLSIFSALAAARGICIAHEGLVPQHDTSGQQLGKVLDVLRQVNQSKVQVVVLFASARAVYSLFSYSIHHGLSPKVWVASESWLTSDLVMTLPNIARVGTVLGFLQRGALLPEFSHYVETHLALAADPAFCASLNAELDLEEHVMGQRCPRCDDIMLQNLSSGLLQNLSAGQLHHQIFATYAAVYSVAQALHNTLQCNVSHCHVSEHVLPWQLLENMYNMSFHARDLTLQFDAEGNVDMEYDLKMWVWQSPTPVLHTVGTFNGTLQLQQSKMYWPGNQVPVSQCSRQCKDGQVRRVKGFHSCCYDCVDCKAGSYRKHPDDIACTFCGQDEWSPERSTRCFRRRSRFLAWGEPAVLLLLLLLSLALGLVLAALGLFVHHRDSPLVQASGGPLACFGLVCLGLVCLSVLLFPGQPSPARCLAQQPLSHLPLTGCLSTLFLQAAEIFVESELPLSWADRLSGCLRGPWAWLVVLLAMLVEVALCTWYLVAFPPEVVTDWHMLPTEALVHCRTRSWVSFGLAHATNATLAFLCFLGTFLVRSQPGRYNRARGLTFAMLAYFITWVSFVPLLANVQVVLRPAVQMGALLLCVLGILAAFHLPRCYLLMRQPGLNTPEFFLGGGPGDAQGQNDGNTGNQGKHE
hT1R2/T1R3mosaicB, sequence (Q8TE23 20-839, stated change not applied): as the sequence (Q8TE23 20-839, stated change not applied) above
hT1R2/T1R3mosaicB, sequence (Q925D8 with tags, fused parts or gaps with the stated changes limits assumed): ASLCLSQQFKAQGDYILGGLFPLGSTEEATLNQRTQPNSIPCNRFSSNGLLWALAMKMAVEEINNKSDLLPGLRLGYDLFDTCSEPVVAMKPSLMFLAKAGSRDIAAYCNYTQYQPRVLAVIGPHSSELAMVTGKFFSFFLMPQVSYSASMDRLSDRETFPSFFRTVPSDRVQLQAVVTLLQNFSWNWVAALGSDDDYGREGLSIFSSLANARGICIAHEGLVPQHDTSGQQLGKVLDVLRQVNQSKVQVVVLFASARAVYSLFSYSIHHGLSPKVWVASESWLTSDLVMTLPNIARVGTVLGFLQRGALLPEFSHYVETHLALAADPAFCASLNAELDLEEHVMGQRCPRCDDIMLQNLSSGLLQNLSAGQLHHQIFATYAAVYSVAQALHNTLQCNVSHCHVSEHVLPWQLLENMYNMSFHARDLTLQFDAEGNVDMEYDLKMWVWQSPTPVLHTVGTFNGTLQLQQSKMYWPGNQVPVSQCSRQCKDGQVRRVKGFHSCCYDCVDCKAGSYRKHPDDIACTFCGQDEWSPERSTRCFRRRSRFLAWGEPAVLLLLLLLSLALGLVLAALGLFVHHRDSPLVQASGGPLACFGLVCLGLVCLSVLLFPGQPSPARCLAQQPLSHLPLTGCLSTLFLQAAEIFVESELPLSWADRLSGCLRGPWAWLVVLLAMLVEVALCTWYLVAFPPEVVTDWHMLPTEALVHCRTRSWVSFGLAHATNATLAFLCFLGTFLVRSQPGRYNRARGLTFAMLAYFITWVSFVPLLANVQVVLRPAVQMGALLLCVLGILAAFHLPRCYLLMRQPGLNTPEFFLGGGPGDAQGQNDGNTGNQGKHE

Compound	S/N [1]	S/N [2]
OC[C@H]1O[C@H](O[C@]2(CCl)O[C@H](CCl)[C@@H](O)[C@@H]2O)[C@H](O)[C@@H](O)[C@H]1Cl [Sucralose, sucralose]	5.7	4.1
CC1=CC(=O)NS(=O)(=O)O1 [Acesulfame K, acesulfame potassium]	3.2	5.5
COC(=O)[C@H](Cc1ccccc1)NC(=O)[C@H](CC(=O)O)NCCCc1ccc(OC)c(O)c1 [Advantame, advantame]	7.8	8.5
OC[C@H]1O[C@@](CO)(O[C@H]2O[C@H](CO)[C@@H](O)[C@H](O)[C@H]2O)[C@@H](O)[C@@H]1O [Sucrose, sucrose]	3.4	4.7
COc1ccc(CCC(=O)c2c(O)cc(O[C@@H]3O[C@H](CO)[C@@H](O)[C@H](O)[C@H]3O[C@@H]3O[C@@H](C)[C@H](O)[C@@H](O)[C@H]3O)cc2O)cc1O [NHDC, neohesperidin dihydrochalcone]	3.8	4.8
COC(=O)[C@H](Cc1ccccc1)NC(=O)[C@H](CC(=O)O)NCCC(C)(C)C [Neotame, neotame]	7.1	6.0
C[C@H](NC(=Nc1ccc(C#N)cc1)NCC(=O)O)c1ccccc1 [SC-45647, [3-[(S)-1-phenylethyl]-2-(4-cyanophenyl)guanidino]acetic acid]	5.4	7.0
O=C1NS(=O)(=O)c2ccccc21.[Na] [Saccharin Na, sodium saccharin]	3.6	5.4
COC(=O)[C@H](Cc1ccccc1)NC(=O)[C@@H](N)CC(=O)O [Aspartame, aspartame] (HELM PEPTIDE1{D.F.[CO[*:1]]}$$$$V2.0)	4.5	5.4
